The values that follow come from paper PMC8529588 (Nature chemical biology, 2021).

The target of test [1] is T1, Fbxo48-V5 (Homo sapiens, UniProt Q5FWF7).
T1 sequence (Q5FWF7 1-155): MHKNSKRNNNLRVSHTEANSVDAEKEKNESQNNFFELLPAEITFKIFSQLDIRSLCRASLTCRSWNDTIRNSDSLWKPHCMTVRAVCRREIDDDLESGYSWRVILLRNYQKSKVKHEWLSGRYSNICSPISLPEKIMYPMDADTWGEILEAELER
In words: cellular thermal shift assay. The test is classed as cell-based. The conditions noted are these: 3 μM BC1618, 30 min, HEK293/293T cells; Fbxo30-V5 as negative control.

The target in test [2] is T2, Purified human Fbxo48 protein (recombinant, HIS-tagged) (human, UniProt Q5FWF7 1-155).
T2 sequence: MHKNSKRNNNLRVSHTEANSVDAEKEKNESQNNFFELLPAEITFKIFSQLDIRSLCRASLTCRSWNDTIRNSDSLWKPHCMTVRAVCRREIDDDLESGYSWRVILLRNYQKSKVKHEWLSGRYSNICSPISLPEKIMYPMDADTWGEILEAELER
In words: pull-down.

Where no end group is shown, it is not given here. [ ]: non-standard residue; d: D form. The star is where a group is joined. Biotin = O=C1N[C@H]2[C@H](CS[C@H]2CCCCC(=O)*)N1; pT = C[C@@H](OP(=O)(O)O)[C@H](N)C(=O)O

Regarding `OC(COc1ccc(C(F)(F)F)cc1)CN(Cc1ccccc1)Cc1ccccc1` (centres unmarked) [compound 2, BC1618], in test [1], the “cellular thermal shift assay (CETSA), immunoblot” value was “BC1618 directly interacted with Fbxo48 but not Fbxo30 (negative control)”.
Take Biotin-DGEFLR[pT]SCGSPN [phospho-Ampkα peptide (Biotin-DGEFLRT(p)SCGSPN)]: the binding result in test [2] is “binds”.
